Biological target: CCR2 (Homo sapiens (Human), UniProt P41597)
Test: MCP-1 Receptor Binding Assay in THP-1 Cells;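 also: THP-1 is a human monocytic cell line, and nonspecific binding was defined with 1 µM unlabeled MCP-1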
Details: 0.5 nM 125I labeled MCP-1, 2 hours at 30° C., read-out: Inhibition of MCP-1 Binding IC50 MCP1B

CCR2, sequence (P41597 whole entry): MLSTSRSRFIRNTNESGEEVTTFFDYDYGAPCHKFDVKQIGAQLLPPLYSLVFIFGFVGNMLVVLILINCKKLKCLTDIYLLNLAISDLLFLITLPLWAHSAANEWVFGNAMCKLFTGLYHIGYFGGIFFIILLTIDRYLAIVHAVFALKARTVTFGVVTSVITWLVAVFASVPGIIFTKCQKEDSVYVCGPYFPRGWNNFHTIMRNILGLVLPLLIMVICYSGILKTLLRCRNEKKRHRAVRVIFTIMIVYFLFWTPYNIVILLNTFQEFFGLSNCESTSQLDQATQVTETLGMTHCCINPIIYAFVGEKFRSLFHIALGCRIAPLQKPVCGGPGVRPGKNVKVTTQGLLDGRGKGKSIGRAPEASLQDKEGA

| IC50 [nM] | SMILES |
| --- | --- |
| 3000 | CCC(NS(=O)(=O)C(F)(F)F)[C@H]1CC[C@@H](N2CC(NC(=O)CNc3ncnc4ccc(C(F)(F)F)cc34)C2)CC1 (stereo partly drawn) [Example 140, 2-((6-(trifluoromethyl)quinazolin-4-yl)amino)-N-(1-((1R,4s)-4-((S)-1-(trifluoromethylsulfonamido)propyl)cyclohexyl)azetidin-3-yl)acetamide] |
| 340 | CC(=O)N(C[C@H]1CC[C@@H](N2CC(NC(=O)CNc3ncnc4ccc(C(F)(F)F)cc34)C2)CC1)C(C)C [Example 115] |
| 120 | CCOC(=O)CC1CCC(N2CC(NC(=O)CNc3ncnc4ccc(C(F)(F)F)cc34)C2)CC1 (centres unmarked) [Example 122] |
| 200 | O=C(CNc1ncnc2ccc(C(F)(F)F)cc12)NC1CN([C@H]2CC[C@@H](N3CCSCC3)CC2)C1 [Example 133, N-(1-((1s,4s)-4-thiomorpholinocyclohexyl)azetidin-3-yl)-2-((6-(trifluoromethyl)quinazolin-4-yl)amino)acetamide] |
| 530 | O=C1CCC(N2CC(NC(=O)CNc3ncnc4ccc(C(F)(F)F)cc34)C2)CC1 [Example 103, N-(1-(4-oxocyclohexyl)azetidin-3-yl)-2-((6-(trifluoromethyl)quinazolin-4-yl)amino)acetamide] |

Source: patent US9062048B2, “Cyclohexyl-azetidinyl antagonists of CCR2” (Janssen Pharmaceutica NV, priority 2010, dated 2015)
